Values of other authors in US5268391A, “Propargyl-terminated cycloalkylalkyl-P2-site substituted aryl/alkylsulfonyl-terminated alanine amino-diol compounds for treatment of hypertension” (C. D. Searle & Co., priority 1992, dated 1993).
Where a SMILES comes first, the peptide text is derived from it. [ ]: non-standard residue; d: D form. The star is where a group is joined. Sta = CC(C)C[C@H](N)[C@@H](O)CC(=O)O; Isovaleryl = CC(C)CC(=O)*

Test system: hog renin
Conditions: after the injection of hog renin into nephrectomized rats

CC(C)CC(=O)N[C@H](C(=O)N[C@H](C(=O)N[C@@H](CC(C)C)[C@@H](O)CC(=O)N[C@@H](C)C(=O)N[C@@H](CC(C)C)[C@@H](O)CC(=O)O)C(C)C)C(C)C [pepstatin] (Isovaleryl-VV[Sta]A[Sta]-OH)
blood pressure in vivo: reduce blood pressure
